# Read-outs that look alike come from different tables or passages of the source.
# Assays:
# [1] = Phase 2 intranasal trials: plasma concentration after 10 mg intranasal dose; assay type: in vivo; conditions: female, human, inhaled or intranasal, premenopausal, 30 minutes post dosing
# Description: In the bremelanotide premenopausal arm, 42.5% of the subjects were discontinued due to hypertension, nausea, vomiting or myalgia. Subjects received a 10 mg intranasal dose of bremelanotide, with premenopausal subjects determined to have a mean plasma concentration of 88.5±51.9 ng/mL and a % CV of 58.6, and postmenopausal subjects determined to have a mean plasma concentration of 93.2±68.5 ng/mL and a % CV of 73.5. The minimum and maximum plasma concentration levels for all women at thirty minutes post dose range from 0.0 ng/mL to 207.0 ng/mL.
# In the intranasal study, premenopausal women self-administered a 10 mg intranasal dose.
# [2] = Example 1: adverse events and discontinuations; assay type: in vivo, human; conditions: for Adverse event leading to withdrawal: Flushing, subjects (%) / Adverse event leading to withdrawal: Hypertension, subjects (%) / Adverse event leading to withdrawal: Nausea, subjects (%) / Adverse event leading to withdrawal: Vomiting, subjects (%) / Adverse event: Any leading to withdrawal, subjects (%) / Adverse event: Any, subjects (%) / Adverse event: Flushing, subjects (%) / Adverse event: Headache, subjects (%) / Adverse event: Injection-site pain, subjects (%) / Adverse event: Injection-site pruritus, subjects (%) / Adverse event: Nausea, subjects (%) / Adverse event: Upper respiratory tract infection, subjects (%): double-blind treatment
# Description: A multi-centered, placebo-controlled, randomized, parallel group trial with fixed dose levels and designed to identify appropriate doses of bremelanotide administered by subcutaneous injection in premenopausal females with FSAD and/or HSDD, under the conditions of home use, was conducted. Subjects received a single dose of placebo (subject-blinded) in-clinic followed by 4 weeks of subject-blinded placebo treatment at home (subjects self-administered treatment as needed). Subjects who continued to qualify for the trial then received 2 single in-clinic doses of randomized treatment (double-blind; approximately one week apart), followed by 12 weeks of double-blind treatment at home (subjects self-administered treatment as needed).
# Bremelanotide was well-tolerated during the trial. The most common types of treatment-emergent adverse events reported more frequently in the bremelanotide arms were facial flushing, nausea, emesis and headache. The study dosed 395 patients. A total of 26 patients discontinued from the study based on preset blood pressure change criterion spread across all arms (N=26, Placebo: 6, bremelanotide arms—0.75 mg: 4, 1.25 mg: 9, 1.75 mg: 7). A total of 19 patients discontinued from the study based on adverse events spread across all arms (N=19, Placebo: 5, bremelanotide arms—0.75 mg: 2, 1.25 mg: 4, 1.75 mg: 8). The adverse events that most commonly lead to discontinuation (other than meeting the blood pressure criterion) were flushing, nausea and emesis. Based on a safety review by an independent Data Safety Monitoring Board, no significant safety issues or concerns were identified during the study. […] Adverse events during the double-blind treatment period are shown on Table 6 below.
smiles,measurement,setting,value
"CCCC[C@H](NC(C)=O)C(=O)N[C@H]1CC(=O)NCCCC[C@@H](C(=O)O)NC(=O)[C@H](Cc2c[nH]c3ccccc23)NC(=O)[C@H](CCCNC(=N)N)NC(=O)[C@@H](Cc2ccccc2)NC(=O)[C@H](Cc2c[nH]cn2)NC1=O [bremelanotide, Ac-Nle-cyclo(-Asp-His-D-Phe-Arg-Trp-Lys)-OH]",Cmax at 30 min,"[1]; read-out: Cmax / plasma concentration, mean",88.5 ± 51.9 ng/mL
same,Cmax at 30 min,"[1]; read-out: Cmax, maximum",207 ng/mL
same,Cmax at 30 min,"[1]; read-out: Cmax, median",81.1 ng/mL
same,Patients discontinued based on adverse events,[2]; 0.75 mg SC,2
same,Patients discontinued on preset blood pressure change criterion,[2]; 0.75 mg SC,4
same,"Adverse event leading to withdrawal: Flushing, subjects (%)",[2]; 0.75 mg SC (N = 100),0
same,"Adverse event leading to withdrawal: Hypertension, subjects (%)",[2]; 0.75 mg SC (N = 100),2 (2%)
same,"Adverse event leading to withdrawal: Nausea, subjects (%)",[2]; 0.75 mg SC (N = 100),0
same,"Adverse event leading to withdrawal: Vomiting, subjects (%)",[2]; 0.75 mg SC (N = 100),0
same,"Adverse event: Any leading to withdrawal, subjects (%)",[2]; 0.75 mg SC (N = 100),2 (2%)
same,"Adverse event: Any, subjects (%)",[2]; 0.75 mg SC (N = 100),64 (64%)
same,"Adverse event: Flushing, subjects (%)",[2]; 0.75 mg SC (N = 100),17 (17%)
same,"Adverse event: Headache, subjects (%)",[2]; 0.75 mg SC (N = 100),9 (9%)
same,"Adverse event: Injection-site pain, subjects (%)",[2]; 0.75 mg SC (N = 100),6 (6%)
same,"Adverse event: Injection-site pruritus, subjects (%)",[2]; 0.75 mg SC (N = 100),4 (4%)
same,"Adverse event: Nausea, subjects (%)",[2]; 0.75 mg SC (N = 100),18 (18%)
same,"Adverse event: Upper respiratory tract infection, subjects (%)",[2]; 0.75 mg SC (N = 100),8 (8%)
same,Patients discontinued based on adverse events,[2]; 1.25 mg SC,4
same,Patients discontinued on preset blood pressure change criterion,[2]; 1.25 mg SC,9
same,"Adverse event leading to withdrawal: Flushing, subjects (%)",[2]; 1.25 mg SC (N = 99),1 (1%)
same,"Adverse event leading to withdrawal: Hypertension, subjects (%)",[2]; 1.25 mg SC (N = 99),0
same,"Adverse event leading to withdrawal: Nausea, subjects (%)",[2]; 1.25 mg SC (N = 99),0
same,"Adverse event leading to withdrawal: Vomiting, subjects (%)",[2]; 1.25 mg SC (N = 99),1 (1%)
same,"Adverse event: Any leading to withdrawal, subjects (%)",[2]; 1.25 mg SC (N = 99),4 (4%)
same,"Adverse event: Any, subjects (%)",[2]; 1.25 mg SC (N = 99),61 (62%)
same,"Adverse event: Flushing, subjects (%)",[2]; 1.25 mg SC (N = 99),14 (14%)
same,"Adverse event: Headache, subjects (%)",[2]; 1.25 mg SC (N = 99),9 (9%)
same,"Adverse event: Injection-site pain, subjects (%)",[2]; 1.25 mg SC (N = 99),6 (6%)
same,"Adverse event: Injection-site pruritus, subjects (%)",[2]; 1.25 mg SC (N = 99),4 (4%)
same,"Adverse event: Nausea, subjects (%)",[2]; 1.25 mg SC (N = 99),22 (22%)
same,"Adverse event: Upper respiratory tract infection, subjects (%)",[2]; 1.25 mg SC (N = 99),5 (5%)
same,Patients discontinued based on adverse events,[2]; 1.75 mg SC,8
same,Patients discontinued on preset blood pressure change criterion,[2]; 1.75 mg SC,7
same,"Adverse event leading to withdrawal: Flushing, subjects (%)",[2]; 1.75 mg SC (N = 98),1 (1%)
same,"Adverse event leading to withdrawal: Hypertension, subjects (%)",[2]; 1.75 mg SC (N = 98),1 (1%)
same,"Adverse event leading to withdrawal: Nausea, subjects (%)",[2]; 1.75 mg SC (N = 98),3 (3%)
same,"Adverse event leading to withdrawal: Vomiting, subjects (%)",[2]; 1.75 mg SC (N = 98),3 (3%)
same,"Adverse event: Any leading to withdrawal, subjects (%)",[2]; 1.75 mg SC (N = 98),8 (8%)
same,"Adverse event: Any, subjects (%)",[2]; 1.75 mg SC (N = 98),67 (68%)
same,"Adverse event: Flushing, subjects (%)",[2]; 1.75 mg SC (N = 98),17 (17%)
same,"Adverse event: Headache, subjects (%)",[2]; 1.75 mg SC (N = 98),14 (14%)
same,"Adverse event: Injection-site pain, subjects (%)",[2]; 1.75 mg SC (N = 98),7 (7%)
same,"Adverse event: Injection-site pruritus, subjects (%)",[2]; 1.75 mg SC (N = 98),6 (6%)
same,"Adverse event: Nausea, subjects (%)",[2]; 1.75 mg SC (N = 98),24 (24%)
